Source: patent US20250057823A1, “COMPOSITION FOR IMPROVING CARDIAC FUNCTION” (Kyoto University, priority 2021, published 2025)
Where a name gives a salt, the structure may show the parent alone.

What was measured:
[1] = tested on: TAC mice; experiment: Acute effect on mouse models of heart failure (TAC, single injection 5 weeks later); assay type: in vivo; details: TAC mice 5 weeks after TAC, 50 mg/kg, echocardiography before and 10 minutes after injection
Description: Transverse aortic constriction (TAC) was performed as described previously [Date, et al. (2002) The antioxidant N-2-mercaptopropionyl glycine attenuates left ventricular hypertrophy in in vivo murine pressure-overload model. J Am Coll Cardiol 39: 907-912.]. Briefly, 8- to 10-week-old mice were anesthetized with anesthetic (0.3 mg/kg of medetomidine, 4.0 mg/kg of midazolam, and 5.0 mg/kg of butorphanol) administered intraperitoneally, and the proximal portion of the sternum was cut open to visualize the aorta. A 7-0 silk suture was placed around the aortic arch distal to the brachiocephalic artery. The suture was tightened firmly around a blunt 26-gauge needle placed adjacent to the aorta. The needle was then removed, and the chest and overlying skin were closed. Sham-operated mice underwent an identical surgical procedure without ligation of the aortic arch. At the end of the operation, 0.3 mg/kg of atipamezole was administered subcutaneously to reverse medetomidine. FIG. 1 is a schematic diagram of TAC.
To analyze the cardiac function, we used Vevo® 2100 (VISUALSONICS) at the indicated time points after TAC operation. Mice were kept under inhalation anesthesia with 2.5% isoflurane. LV function was measured in M mode of the parasternal short-axis view.
Mice were subjected to TAC at 8 weeks of age. Five weeks later (at 13 weeks of age), the mice were injected with KUS121 (50 mg/kg), and left ventricular ejection fraction (LVEF), left ventricular end-diastolic diameter (LVDd), and heart rate (HR) were assessed by echocardiography before and 10 minutes after the injection.
Mice were subjected to TAC at 8 weeks of age. Five weeks later (at 13 weeks of age), the mice were injected with KUS121 (50 mg/kg), and left ventricular pressure was measured by catheterization before and 10 minutes after the injection. The left ventricular pressure was 46.6 mmHg before KUS121 administration, and increased to 128.9 mmHg 10 minutes after the administration. In addition, Max/min dp/dt was changed from 1295.5/−621.4 mmHg/s to 3972.8/−1311.1 mmHg/s. […] Left ventricular ejection fraction was then measured over time and was 37% before KUS121 administration, increased to 67% 5 minutes after the administration, and returned to the baseline about 2 hours after the administration (FIG. 16).
Mice were subjected to TAC at 8 weeks of age. Five weeks later (at 13 weeks of age), the mice were injected with KUS187 (50 mg/kg), and left ventricular ejection fraction was assessed by echocardiography before and 10 minutes after the injection.

[2] = tested on: beagle dog models of heart failure; experiment: Beagle dog models of rapid ventricular pacing-induced heart failure; assay type: in vivo; details: infusion per FIG. 17 protocol
Description: After induction of general anesthesia with thiopental sodium (20 mg/kg, i.v.: 0.5 g of Labonal injection, Nipro ES Pharma Corporation) in 10- to 12-month-old male beagle dogs (9.80-11.50 kg), a tracheal cannula was inserted into the airway, and artificial respiration was performed with an Acoma veterinary ventilator (PRO-45Va, Acoma Medical Corporation). Anesthesia was maintained by inhalation of a gas mixture (Air:O2=3:0.2) and 1.0 to 2.5% isoflurane (isoflurane inhalation solution “Pfizer”, Mylan Seiyaku Co., Ltd.) using an Acoma animal anesthesia machine (NS-5000A, Acoma Medical Industry Co., Ltd.) to maintain a constant depth of anesthesia. An incision was made in the right side of the neck of the animal, an animal internal cardiac pacemaker (SIP-501, Star Medical Corporation) was implanted subcutaneously, a retractable screw-in reed (Tendril STS J, St. Jude Medical, Inc.) was inserted through the right jugular vein under X-ray fluoroscopy (BV Pulsera, Koninklijke Philips N.V.), and the tip was implanted in the right ventricular wall. Pacing was started at 244-251 beats/min on postoperative day 1. Dogs with ejection fraction (EF) decreasing to 30-50% at 4 weeks after pacemaker activation were considered to have heart failure and subjected to analysis.
Echocardiography was performed using a general-purpose ultrasound imaging system (Vivid S6, GE Medical Systems). The left ventricular end-diastolic diameter (LVIDd), left ventricular end-systolic diameter (LVIDs), ejection fraction (EF), and left ventricular internal diameter shortening (% FS) were measured in M-mode by placing a sector probe (10 MHz) on the chest.
Dogs were anesthetized intravenously with 14.5 to 22.3 mg/kg of secobarbital sodium (Injectable Ionar sodium (0.2), Nichi-Iko Co., Ltd.), followed by subcutaneous administration of 0.2 mg/kg of meloxicam (Metacam 0.5% injection, Boehringer Ingelheim Animal Health Japan Co.). A tracheal tube was inserted into the airway and connected to an Acoma animal ventilator (PRO-45Va, Acoma Medical Industry Co., Ltd.). The ventilator was set at a respiratory rate of 14-18 strokes/min and a tidal volume of 10-20 mL/kg/stroke, and respiration was controlled by an Acoma animal anesthesia machine (NS-5000A, Acoma Medical Industry Co., Ltd.) using a gas mixture (FiO2=0.3-1.0). The exhaled CO2 partial pressure was monitored using an exhaled carbon dioxide monitor (OLG-2800, Nihon Kohden Corporation). The animals were fixed in the dorsal position and the thighs and neck were shom. Anesthesia was maintained by continuous intravenous infusion of sodium secobarbital (5 mg/kg/hr) through the radial cutaneous vein using a Telfusion syringe pump (STC-523, Terumo Corporation). A Swan-Ganz catheter was inserted through the left femoral vein. A catheter for coronary angiography was inserted through the left femoral artery. A 5F sheath for arterial blood sampling was placed in the right femoral artery. A catheter for PV-loop analysis was inserted from the left internal carotid artery. An 8F occlusion balloon was placed from the right femoral vein for occlusion testing. In addition, KUS121 was administered from the left common jugular vein.
Beagle dog models of heart failure were prepared by rapid ventricular pacing. Cardiac function was assessed by echocardiography before KUS121 administration and after continuous infusion at 40 mg/h. KUS121 increased LVEF, even if it was based on either of the Teichholz method and the modified-Simpson's method, and increased % FS (FIG. 18). Changes in heart rate, systolic blood pressure, diastolic blood pressure, left ventricular ejection fraction, mean pulmonary artery pressure, pulmonary capillary wedge pressure, left ventricular end-diastolic pressure, and adjusted dp/dt are shown in FIGS. 19 to 21. […]

With `CCCCOc1c(C=O)cc(C)cc1-c1ccc(/N=N/c2cc(S(=O)(=O)O)c3ccccc3c2N)cn1` [KUS187, 4-amino-3-[6-(3-formyl-2-butoxy-5-methylphenyl)pyridine-3-ylazo]naphthalene-1-sulfonic acid sodium salt] as the compound, how does the “left ventricular ejection fraction (LVEF)” value [1] read?
The value was “increased”.

What does the source list for `CC(CCc1ccc(O)cc1)NCCc1ccc(O)c(O)c1` (stereo not drawn) [dobutamine, reference compound]?
heart rate [2]: increased heart rate; left ventricular systolic function [2]: improved
